Assay [1] deals with T1, Muscarinic acetylcholine receptor M2 (Homo sapiens, UniProt P08172).
T1 sequence (P08172 whole entry): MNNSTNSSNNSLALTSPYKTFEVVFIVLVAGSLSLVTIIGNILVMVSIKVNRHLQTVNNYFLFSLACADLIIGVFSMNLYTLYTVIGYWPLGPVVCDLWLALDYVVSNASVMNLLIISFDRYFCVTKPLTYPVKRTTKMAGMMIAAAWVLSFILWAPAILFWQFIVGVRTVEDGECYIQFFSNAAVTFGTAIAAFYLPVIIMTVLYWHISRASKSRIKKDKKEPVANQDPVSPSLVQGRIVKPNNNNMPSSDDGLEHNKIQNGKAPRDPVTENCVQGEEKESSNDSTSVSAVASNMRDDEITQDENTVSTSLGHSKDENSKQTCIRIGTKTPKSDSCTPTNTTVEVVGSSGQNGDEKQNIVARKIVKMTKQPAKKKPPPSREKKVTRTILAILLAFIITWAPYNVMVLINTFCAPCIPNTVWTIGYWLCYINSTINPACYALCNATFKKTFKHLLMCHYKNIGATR

For assay [2], the target named is D(3) dopamine receptor (Homo sapiens, UniProt P35462).
Chain of D(3) dopamine receptor (P35462 whole entry): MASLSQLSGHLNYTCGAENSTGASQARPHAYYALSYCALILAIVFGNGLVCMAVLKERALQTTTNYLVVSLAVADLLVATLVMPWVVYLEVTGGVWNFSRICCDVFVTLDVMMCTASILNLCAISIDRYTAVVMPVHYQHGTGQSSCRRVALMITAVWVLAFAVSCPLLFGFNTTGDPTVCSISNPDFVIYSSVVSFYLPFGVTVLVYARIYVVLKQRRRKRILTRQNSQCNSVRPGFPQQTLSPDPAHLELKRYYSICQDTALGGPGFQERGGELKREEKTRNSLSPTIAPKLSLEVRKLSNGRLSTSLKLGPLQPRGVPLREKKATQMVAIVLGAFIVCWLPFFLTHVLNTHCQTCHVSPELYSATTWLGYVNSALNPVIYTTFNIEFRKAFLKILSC
In assay [3] the target is Prothrombin (Homo sapiens, UniProt P00734). It is filed as functional.
Assay [4] addresses T2, Progesterone receptor (Homo sapiens, UniProt P06401).
T2 sequence (P06401 whole entry): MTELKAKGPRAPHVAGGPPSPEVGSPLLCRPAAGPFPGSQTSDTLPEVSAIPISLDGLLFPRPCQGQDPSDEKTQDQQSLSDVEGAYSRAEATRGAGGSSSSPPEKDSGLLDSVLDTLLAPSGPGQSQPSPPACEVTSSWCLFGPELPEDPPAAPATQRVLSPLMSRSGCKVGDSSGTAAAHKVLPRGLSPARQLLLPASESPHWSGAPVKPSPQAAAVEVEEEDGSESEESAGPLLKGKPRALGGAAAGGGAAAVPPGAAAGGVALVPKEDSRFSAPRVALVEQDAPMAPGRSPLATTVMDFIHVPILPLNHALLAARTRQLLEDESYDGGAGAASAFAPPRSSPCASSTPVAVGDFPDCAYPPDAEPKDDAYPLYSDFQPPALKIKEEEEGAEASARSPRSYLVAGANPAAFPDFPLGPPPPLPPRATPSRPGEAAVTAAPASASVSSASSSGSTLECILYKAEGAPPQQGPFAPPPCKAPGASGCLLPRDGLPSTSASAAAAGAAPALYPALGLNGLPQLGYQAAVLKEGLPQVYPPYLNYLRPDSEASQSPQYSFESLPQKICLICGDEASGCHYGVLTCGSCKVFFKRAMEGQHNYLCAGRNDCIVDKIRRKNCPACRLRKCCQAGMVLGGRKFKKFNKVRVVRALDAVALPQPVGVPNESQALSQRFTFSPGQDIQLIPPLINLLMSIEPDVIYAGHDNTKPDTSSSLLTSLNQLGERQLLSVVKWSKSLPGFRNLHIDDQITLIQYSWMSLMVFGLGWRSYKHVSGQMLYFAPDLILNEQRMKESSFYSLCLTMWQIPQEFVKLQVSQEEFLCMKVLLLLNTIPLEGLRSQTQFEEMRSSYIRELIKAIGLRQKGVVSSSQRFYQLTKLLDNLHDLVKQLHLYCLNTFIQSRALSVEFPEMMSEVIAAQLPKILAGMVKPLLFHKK

For assay [5], the target named is Sodium-dependent noradrenaline transporter (Homo sapiens, UniProt P23975).
Chain of Sodium-dependent noradrenaline transporter (P23975 whole entry): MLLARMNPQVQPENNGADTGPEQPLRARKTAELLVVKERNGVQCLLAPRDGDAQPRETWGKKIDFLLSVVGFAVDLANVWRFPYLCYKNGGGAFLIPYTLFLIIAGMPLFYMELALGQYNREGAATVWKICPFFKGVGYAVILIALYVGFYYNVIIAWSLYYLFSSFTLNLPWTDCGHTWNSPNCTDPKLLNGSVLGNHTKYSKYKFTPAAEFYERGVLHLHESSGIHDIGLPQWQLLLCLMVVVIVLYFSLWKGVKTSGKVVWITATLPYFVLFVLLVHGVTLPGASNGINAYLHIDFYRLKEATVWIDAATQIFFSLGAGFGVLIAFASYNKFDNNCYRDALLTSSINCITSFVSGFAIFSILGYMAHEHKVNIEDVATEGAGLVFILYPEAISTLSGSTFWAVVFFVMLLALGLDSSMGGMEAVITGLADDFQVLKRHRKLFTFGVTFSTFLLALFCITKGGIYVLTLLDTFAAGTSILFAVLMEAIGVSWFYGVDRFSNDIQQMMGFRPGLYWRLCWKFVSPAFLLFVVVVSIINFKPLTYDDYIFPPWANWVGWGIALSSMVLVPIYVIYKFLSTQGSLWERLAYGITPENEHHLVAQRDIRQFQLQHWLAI
In assay [6] the target is T3, Thromboxane A2 receptor (Homo sapiens, UniProt P21731).
T3 sequence (P21731 whole entry): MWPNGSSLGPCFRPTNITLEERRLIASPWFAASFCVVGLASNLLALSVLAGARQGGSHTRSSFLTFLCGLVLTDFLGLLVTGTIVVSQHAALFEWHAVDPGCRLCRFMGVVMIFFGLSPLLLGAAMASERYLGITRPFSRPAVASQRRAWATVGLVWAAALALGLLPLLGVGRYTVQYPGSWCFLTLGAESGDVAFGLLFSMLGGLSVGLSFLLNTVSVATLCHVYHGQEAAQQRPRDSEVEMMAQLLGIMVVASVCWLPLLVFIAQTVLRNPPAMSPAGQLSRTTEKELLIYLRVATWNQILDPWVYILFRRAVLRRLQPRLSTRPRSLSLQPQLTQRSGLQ
It is filed as functional, cell-based.

The structures appear in SMILES notation.
Note: assay procedure not described here.

As to `CC(C(=O)O)c1cccc(Oc2ccccc2)c1` (stereo not drawn) [FENOPROFEN], the concentration at half-maximal activity (AC50) in assay [1], in assay [2], in assay [3], in assay [4], in assay [5] and in assay [6] was over 30 µM throughout.
On to `CC(C)C(=O)Oc1ccc(CO)cc1[C@H](CCN(C(C)C)C(C)C)c1ccccc1` [FESOTERODINE], for which the AC50 in assay [1] was 0.414 µM; in assay [2], over 30 µM; in assay [3], over 30 µM; in assay [4] it was over 30 µM; in assay [5], over 30 µM; in assay [6], over 30 µM.
For the compound `CC1(C)O[C@@H]2C[C@H]3[C@@H]4C[C@H](F)C5=CC(=O)C=C[C@]5(C)[C@@]4(F)[C@@H](O)C[C@]3(C)[C@]2(C(=O)CO)O1` [FLUOCINOLONE ACETONIDE], the AC50 in assay [1] is over 30 µM; in assay [2], over 30 µM; in assay [3] it was over 30 µM; in assay [4], 0.0107 µM; in assay [5], over 30 µM; in assay [6], over 30 µM.
As to `O=C(O)P(=O)(O)O` [FOSCARNET], the AC50 in assay [1], in assay [2], in assay [3], in assay [4], in assay [5] and in assay [6] was over 30 µM in each case.
As for `C#C[C@]1(O)C=C[C@H]2[C@@H]3CCC4=CC(=O)CC[C@@H]4[C@H]3CC[C@@]21CC` [GESTODENE], the AC50 is over 30 µM in assay [1]; over 30 µM in assay [2]; over 30 µM in assay [3]; 0.003 µM in assay [4]; over 30 µM in assay [5]; over 30 µM in assay [6].
As for `COc1ccccc1OC1(C)OC(=O)c2ccccc2O1` (stereo not drawn) [GUAIMESAL], the AC50 in assay [1], in assay [2], in assay [3], in assay [4], in assay [5] and in assay [6] was over 30 µM each time.
As for `N=C(N)N/N=C/c1c(Cl)cccc1Cl` [GUANABENZ], the AC50 is over 30 µM in assay [1]; 10.5 µM in assay [2]; over 30 µM in assay [3]; over 30 µM in assay [4]; 8.81 µM in assay [5]; 22.2 µM in assay [6].
As to `C[N+](C)(CCCCCC[N+](C)(C)C1c2ccccc2-c2ccccc21)C1c2ccccc2-c2ccccc21` [HEXAFLUORENIUM], the AC50 was 0.514 µM in assay [1]; 0.0671 µM in assay [2]; over 30 µM in assay [3]; over 30 µM in assay [4]; 1.44 µM in assay [5]; over 30 µM in assay [6].
In the case of `CCCCC(CC)CN1CN(CC(CC)CCCC)CC(C)(N)C1` (stereo not drawn) [HEXETIDINE], the AC50 in assay [1] was 3.18 µM; in assay [2], 4.84 µM; in assay [3] it was over 30 µM; in assay [4] it was over 30 µM; in assay [5], 7.93 µM; in assay [6], over 30 µM.
For the compound `Cc1cc(=O)oc2cc(O)ccc12` [HYMECROMONE], the AC50 in assay [1] is over 30 µM; in assay [2], over 30 µM; in assay [3], over 3 µM; in assay [4], over 30 µM; in assay [5] it was over 30 µM; in assay [6], over 30 µM.
`COc1c2occc2c(OC)c2c(=O)cc(C)oc12` [KHELLIN]: the AC50 in assay [1], in assay [2], in assay [3], in assay [4], in assay [5] and in assay [6] was over 30 µM each time.
On to `CC(C)[C@@H]1CC[C@@H](C)C[C@H]1O` [LEVOMENTHOL], for which the AC50 in assay [1], in assay [2], in assay [3], in assay [4], in assay [5] and in assay [6] was over 30 µM each time.
With `COC(=O)[C@@H](N)Cc1ccc(O)c(O)c1` [MELEVODOPA], the AC50 in assay [1], in assay [2], in assay [3], in assay [4], in assay [5] and in assay [6] was over 30 µM each time.
Turning to `C=N[C@@H](C(=O)N[C@@H]1C(=O)N2[C@@H]1SC(C)(C)[C@@H]2C(=O)O)c1ccccc1` [METAMPICILLIN], the AC50 in assay [1], in assay [2], in assay [3], in assay [4], in assay [5] and in assay [6] was over 30 µM in each case.
In the case of `O=C(NNCS(=O)(=O)O)c1ccncc1` [METHANIAZIDE], the AC50 in assay [1], in assay [2], in assay [3], in assay [4], in assay [5] and in assay [6] was over 30 µM in each case.
Take `Cc1cc(=O)[nH]c(=S)[nH]1` [METHYLTHIOURACIL]: the AC50 in assay [1], in assay [2], in assay [3], in assay [4], in assay [5] and in assay [6] was over 30 µM throughout.
`CN(C)c1ccc(O)c2c1C[C@H]1C[C@H]3[C@H](N(C)C)C(O)=C(C(N)=O)C(=O)[C@@]3(O)C(O)=C1C2=O` [MINOCYCLINE]: the AC50 in assay [1] was over 10 µM; in assay [2], over 30 µM; in assay [3], over 30 µM; in assay [4], over 30 µM; in assay [5], over 30 µM; in assay [6], over 30 µM.
`CCNC(=O)/C=C(C)/C=C/C=C(C)/C=C/c1c(C)cc(OC)c(C)c1C` [MOTRETINIDE]: the AC50 in assay [1] is over 30 µM; in assay [2] it was over 30 µM; in assay [3], over 30 µM; in assay [4] it was 0.932 µM; in assay [5], 24.1 µM; in assay [6], over 30 µM.
For `C=CC(=O)Nc1cccc(Oc2nc(Nc3ccc(N4CCN(C)CC4)cc3)nc3ccsc23)c1` [OLMUTINIB], the AC50 in assay [1] was 1.64 µM; in assay [2] it was 0.453 µM; in assay [3] it was over 30 µM; in assay [4] it was over 30 µM; in assay [5], 12.3 µM; in assay [6], 4.35 µM.
As for `COc1ccc2[nH]c([S+]([O-])Cc3ncc(C)c(OC)c3C)nc2c1` (stereo not drawn) [OMEPRAZOLE], the AC50 was 15.7 µM in assay [1]; 20.7 µM in assay [2]; over 30 µM in assay [3]; over 30 µM in assay [4]; over 30 µM in assay [5]; over 30 µM in assay [6].
`CCCCC1C(=O)N(c2ccccc2)N(c2ccc(O)cc2)C1=O` (stereo not drawn) [OXYPHENBUTAZONE ANHYDROUS]: the AC50 in assay [1], in assay [2], in assay [3], in assay [4], in assay [5] and in assay [6] was over 30 µM each time.
On to `O=C(O)CN(CCN(CC(=O)O)CC(=O)O)CCN(CC(=O)O)CC(=O)O` [PENTETIC ACID], for which the AC50 in assay [1] is 3.91 µM; in assay [2], 2.26 µM; in assay [3] it was over 30 µM; in assay [4], over 30 µM; in assay [5], 10.9 µM; in assay [6], over 30 µM.
Turning to `Nc1cccc2c1C(=O)N(C1CCC(=O)NC1=O)C2=O` (stereo not drawn) [POMALIDOMIDE], the concentration at half-maximal activity (AC50) in assay [1], in assay [2], in assay [3], in assay [4], in assay [5] and in assay [6] was over 30 µM throughout.

The values are drawn from ChEMBL document CHEMBL5291721, “A preclinical secondary pharmacology resource illuminates target-adverse drug reaction associations of marketed drugs” (Nat Commun, 2023).
